According to patent US11208396B2, “Oxime compounds as agonists of the muscarinic M1 and/or M4 receptor” (Heptares Therapeutics Limited, priority 2015, dated 2021):

Experiments:
Format in all cases: cell-based
[1] = target: T1, human muscarinic M1 receptor (Homo sapiens, UniProt P11229); assay: Alphascreen Surefire phospho-ERK1/2 functional assay, M1; conditions: for % Emax cf. ACh, M1 / Emax: Emax compared with ACh; for EC50: read-out: pEC50 M1 (converted); for Emax: CHO, read-out: % Emax cf. ACh, M1, CHO cells stably expressing human M1
T1 sequence (P11229 1-460): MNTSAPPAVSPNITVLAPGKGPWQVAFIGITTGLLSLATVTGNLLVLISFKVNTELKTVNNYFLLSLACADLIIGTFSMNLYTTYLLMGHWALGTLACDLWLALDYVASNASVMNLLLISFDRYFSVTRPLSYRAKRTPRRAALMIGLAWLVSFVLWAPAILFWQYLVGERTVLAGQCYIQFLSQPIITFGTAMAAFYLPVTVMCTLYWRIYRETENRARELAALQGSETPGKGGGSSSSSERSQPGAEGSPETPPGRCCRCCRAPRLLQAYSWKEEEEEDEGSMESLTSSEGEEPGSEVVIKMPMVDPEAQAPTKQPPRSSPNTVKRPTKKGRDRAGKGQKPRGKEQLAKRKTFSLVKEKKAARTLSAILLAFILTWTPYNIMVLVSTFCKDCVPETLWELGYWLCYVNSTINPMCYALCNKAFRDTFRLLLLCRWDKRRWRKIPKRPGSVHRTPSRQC
Experimental: (§1) ERK1/2 phosphorylation is a downstream consequence of both Gq/11 and Gi/o protein coupled receptor activation, making it highly suitable for the assessment of M1, M3 (Gq/11 coupled) and M2, M4 receptors (Gi/o coupled), rather than using different assay formats for different receptor subtypes. CHO cells stably expressing the human muscarinic M1, M2, M3 or M4 receptor were plated (25K/well) onto 96-well tissue culture plates in MEM-alpha+10% dialysed FBS. Once adhered, cells were serum-starved overnight. Agonist stimulation was performed by the addition of 5 μL agonist to the cells for 5 min (37° C.). Media was removed and 50 μL of lysis buffer added. After 15 min, a 4 μL sample was transferred to 384-well plate and 7 μL of detection mixture added. Plates were incubated for 2 h with gentle agitation in the dark and then read on a PHERAstar plate reader.
(§2) pEC50 and Emax figures were calculated from the resulting data for each receptor subtype.

[2] = target: T2, human muscarinic M2 receptor (Homo sapiens, UniProt P08172); assay: Alphascreen Surefire phospho-ERK1/2 functional assay, M2; conditions: for EC50 / % Emax cf. ACh, M2 / pEC50 M2: CHO cells stably expressing human M2; for EC50 / pEC50 M2: agonist 5 min, 37° C.; for EC50: read-out: pEC50 M2 (converted); for Emax: CHO, read-out: % Emax cf. ACh, M2, CHO cells stably expressing human M2; for Emax / % Emax cf. ACh, M2: Emax compared with ACh
T2 sequence (P08172 1-466): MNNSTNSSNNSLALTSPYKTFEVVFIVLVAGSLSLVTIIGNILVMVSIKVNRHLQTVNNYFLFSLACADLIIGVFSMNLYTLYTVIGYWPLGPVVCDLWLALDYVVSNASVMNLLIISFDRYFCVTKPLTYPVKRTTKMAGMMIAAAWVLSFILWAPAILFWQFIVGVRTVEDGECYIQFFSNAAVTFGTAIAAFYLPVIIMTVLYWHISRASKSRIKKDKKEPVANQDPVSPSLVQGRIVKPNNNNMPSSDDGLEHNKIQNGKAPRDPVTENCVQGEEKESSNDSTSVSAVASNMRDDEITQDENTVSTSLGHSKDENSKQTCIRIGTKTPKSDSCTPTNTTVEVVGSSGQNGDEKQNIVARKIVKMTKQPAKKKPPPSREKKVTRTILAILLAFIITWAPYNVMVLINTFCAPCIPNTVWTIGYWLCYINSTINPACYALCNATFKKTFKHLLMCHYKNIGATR
Experimental: as §1, §2

[3] = target: T3, human muscarinic M3 receptor (Homo sapiens, UniProt P20309); assay: Alphascreen Surefire phospho-ERK1/2 functional assay, M3; conditions: for EC50 / % Emax cf. ACh, M3 / pEC50 M3: CHO cells stably expressing human M3; for EC50 / pEC50 M3: agonist 5 min, 37° C.; for EC50: read-out: pEC50 M3 (converted); for Emax: CHO, read-out: % Emax cf. ACh, M3, CHO cells stably expressing human M3; for Emax / % Emax cf. ACh, M3: Emax compared with ACh
T3 construct: expressed in transfected cells
Experimental: as §1, §2

[4] = target: T4, human muscarinic M4 receptor (Homo sapiens, UniProt P08173); assay: Alphascreen Surefire phospho-ERK1/2 functional assay, M4; conditions: for % Emax cf. ACh, M4 / pEC50 M4 / EC50: CHO cells stably expressing human M4; for % Emax cf. ACh, M4 / Emax: Emax compared with ACh; for pEC50 M4 / EC50: agonist 5 min, 37° C.; for EC50: read-out: pEC50 M4 (converted); for Emax: CHO, read-out: % Emax cf. ACh, M4, CHO cells stably expressing human M4
T4 construct: expressed in transfected cells
T4 sequence (P08173 1-479): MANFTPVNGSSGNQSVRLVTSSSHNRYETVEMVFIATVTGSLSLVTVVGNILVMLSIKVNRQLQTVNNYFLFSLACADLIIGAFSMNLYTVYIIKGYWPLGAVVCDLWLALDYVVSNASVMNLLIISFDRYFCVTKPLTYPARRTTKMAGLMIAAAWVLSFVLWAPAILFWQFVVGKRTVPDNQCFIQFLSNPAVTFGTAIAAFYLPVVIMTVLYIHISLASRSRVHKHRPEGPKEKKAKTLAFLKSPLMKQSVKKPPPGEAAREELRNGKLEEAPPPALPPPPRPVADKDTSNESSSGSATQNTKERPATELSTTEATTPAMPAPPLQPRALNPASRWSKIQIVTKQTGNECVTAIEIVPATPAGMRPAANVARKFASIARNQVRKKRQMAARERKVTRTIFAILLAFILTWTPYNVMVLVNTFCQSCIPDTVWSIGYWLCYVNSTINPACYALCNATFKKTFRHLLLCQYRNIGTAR
Experimental: as §1, §2

[5] = CHO cells stably expressing human M1
[6] = CHO cells stably expressing human M1, agonist 5 min, 37° C.

T3 sequence (P20309 whole entry): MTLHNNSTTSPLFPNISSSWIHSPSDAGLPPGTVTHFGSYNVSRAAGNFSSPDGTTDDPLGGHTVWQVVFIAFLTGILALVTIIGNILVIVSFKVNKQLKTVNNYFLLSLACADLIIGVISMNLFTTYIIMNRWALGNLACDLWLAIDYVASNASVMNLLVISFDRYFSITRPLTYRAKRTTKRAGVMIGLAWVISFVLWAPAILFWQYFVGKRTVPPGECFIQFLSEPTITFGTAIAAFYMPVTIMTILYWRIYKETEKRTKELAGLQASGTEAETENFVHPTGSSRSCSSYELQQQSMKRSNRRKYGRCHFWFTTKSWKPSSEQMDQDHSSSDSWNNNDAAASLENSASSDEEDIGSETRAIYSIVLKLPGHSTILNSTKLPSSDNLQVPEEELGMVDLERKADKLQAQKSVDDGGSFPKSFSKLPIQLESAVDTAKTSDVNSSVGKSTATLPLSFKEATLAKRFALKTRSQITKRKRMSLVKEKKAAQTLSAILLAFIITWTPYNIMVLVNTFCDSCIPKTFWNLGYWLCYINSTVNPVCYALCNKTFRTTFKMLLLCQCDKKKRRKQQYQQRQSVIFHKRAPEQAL

Row | SMILES | % Emax cf. ACh, M1 [1, 5] [%] | EC50 [1, 6] [nM] | EC50 [2] [nM] | Emax [2] [%] | EC50 [3] [nM] | Emax [3] [%] | % Emax cf. ACh, M4 [4] [%] | pEC50 M4 [4] | % Emax cf. ACh, M2 [2] [%] | % Emax cf. ACh, M3 [3] [%] | EC50 [4] [nM] | Emax [4] [%] | pEC50 M2 [2] | pEC50 M3 [3] | Emax [1] [%] | pEC50 M1 [1, 6]
1 | CCOC(=O)N1CCCC(N2CCC(C(CC)=NOC)CC2)CC1 (single isomer, unassigned) [1-2 Isomer 1 (racemic)] | 58 | 501 | > 20000 |  | > 20000 |  |  |  | 2 | 37 | 79.4 | 99 |  |  |  | 
2 | CCOC(=O)N1CCCC(N2CCC(C(CC)=NOC)CC2)CC1 (single isomer, unassigned) [1-2 Isomer 2 (racemic)] | 83 | 398 |  |  |  |  | 94 |  | 7 | 1 | 25.1 |  | < 4.7 | < 4.7 |  | 
3 | CCOC(=O)N1CCCC(N2CCC(C(C)=NOC)CC2)CC1 (single isomer, unassigned) [1-1 Isomer 2 (racemic)] |  | 1580 | > 20000 | 4 | > 20000 | 1 |  |  |  |  | 126 | 71 |  |  | 54 | 
4 | CCCON=C(CC)C1CCN(C2CCCN(C(=O)OCC)CC2)CC1 (single isomer, unassigned) [1-11 Isomer 2 (racemic)] | 99 | 158 | > 20000 | 19 | > 20000 | 6 | 97 |  |  |  | 63.1 |  |  |  |  | 
5 | CCOC(=O)N1CCC2(CC(N3CCC(C(C)=NOC)CC3)C2)C1 (single isomer, unassigned) [2-1 Mixture of isomers 2] |  | 200 | > 20000 | 71 | > 20000 | 9 |  |  |  |  | 63.1 | 68 |  |  | 89 | 
6 | CCCC(=NOC)C1CCN(C2CC3(CCN(C(=O)OCC)C3)C2)CC1 (single isomer, unassigned) [2-3 Isomer 4] |  | 158 | > 20000 | 15 | > 20000 | 7 |  |  |  |  | 25.1 | 77 |  |  | 87 | 
7 | CCOC(=O)N1CCCC(N2CCC(C(=NOC)C(C)C)CC2)CC1 (single isomer, unassigned) [1-5 Isomer 2 (racemic)] | 105 |  |  |  |  |  | 104 | 7.5 | 22 | 4 |  |  | < 4.7 | < 4.7 |  | 6.5
8 | CCOC(=O)N1CCCC(N2CCC(C(CCC(C)C)=NOC)CC2)CC1 (single isomer, unassigned) [1-6 Isomer 2 (racemic)] |  | 39.8 | > 20000 | 10 | > 20000 | 16 |  |  |  |  | 126 | 65 |  |  | 96 | 
9 | CCOC(=O)N1CCCC(N2CCC(C(=NOC)C(C)C)CC2)CC1 (single isomer, unassigned) [1-4 Isomer 2 (racemic)] | 95 | 316 | > 15800 |  | > 15800 |  | 107 |  | 7 | 6 | 31.6 |  |  |  |  | 
10 | CCOC(=O)N1CCC2(CC(N3CCC(C(CC)=NOC)CC3)C2)C1 (single isomer, unassigned) [2-2 Isomer 3] | 5 | > 20000 | > 20000 |  | > 20000 |  | 67 |  | 7 | 2 | 50.1 |  |  |  |  | 
11 | CCOC(=O)N1CCC2(CC(N3CCC(C(CC)=NOC)CC3)C2)C1 (single isomer, unassigned) [2-2 Isomer 4] | 59 | 200 |  |  |  |  | 105 |  | 69 | 18 | 20 |  | < 4.7 | < 4.7 |  | 
12 | CCOC(=O)N1CCCC(N2CCC(C(CC)=NOC(C)C)CC2)CC1 (single isomer, unassigned) [1-12 Isomer 2 (racemic)] | 72 | 316 |  |  |  |  | 101 |  | 2 | 1 | 25.1 |  | < 4.7 | < 4.7 |  | 

Further lines, results first:

Row | % Emax cf. ACh, M1 [1, 5] [%] | EC50 [1, 6] [nM] | EC50 [2] [nM] | Emax [2] [%] | EC50 [3] [nM] | Emax [3] [%] | % Emax cf. ACh, M4 [4] [%] | pEC50 M4 [4] | % Emax cf. ACh, M2 [2] [%] | % Emax cf. ACh, M3 [3] [%] | EC50 [4] [nM] | Emax [4] [%] | pEC50 M2 [2] | pEC50 M3 [3] | Emax [1] [%] | pEC50 M1 [1, 6] | SMILES
13 | 49 | 501 | > 20000 | 7 | > 20000 | 0 | 62 | 6.7 |  |  |  |  |  |  |  |  | CCOC(=O)N1CCC[C@H](N2CCC(C(C)=NOC)CC2)CC1 (single isomer, unassigned) [(S)-1-1 Isomer 2]
14 |  | > 20000 | > 20000 | 7 | > 20000 | 5 |  |  |  |  | 20 | 93 |  |  | 22 |  | CCCC(=NOC)C1CCN(C2CC3(CCN(C(=O)OCC)C3)C2)CC1 (mixture of isomers) [2-3 Mixture of two isomers]
15 |  | 100 | > 20000 | 4 | > 20000 | 5 |  |  |  |  | 79.4 | 72 |  |  | 109 |  | CCOC(=O)N1CCCC(N2CCC(C(C#N)=NOC(C)C)CC2)CC1 (mixture of isomers) [4-1 Mixture of isomers]
16 |  | > 20000 | > 20000 |  | > 20000 | 9 |  |  | 11 |  | 63.1 | 81 |  |  | 21 |  | CCOC(=O)N1CCC[C@H](N2CCC(C(CC)=NOC)CC2)CC1 (single isomer, unassigned) [(S)-1-2 Isomer 1]
17 |  | 251 | > 20000 | 7 | > 20000 | 0 |  |  |  |  | 25.1 | 126 |  |  | 93 |  | CCCC(=NOC)C1CCN([C@H]2CCCN(C(=O)OCC)CC2)CC1 (single isomer, unassigned) [(S)-1-3 Isomer 2]
